Like-named read-outs stand apart in the source and are kept apart here. Non-standard residues stand in square brackets, D forms with d. Residues, ends and D or L forms follow the SMILES beside them. No end group written: not given here. Aib = CC(C)(N)C(=O)O
Assays:
[1] = test system: cell membrane receptor of the intact CEM cell; assay: Cyclic-GMP assay: induction of cyclic-GMP production in intact CEM cells; assay type: cell-based, human; conditions: for Result on the cyclic-GMP assay (in words): in comparison with thymopentin; for Concentration of c-GMP Produced: 4-5 min at 37° C.
Description: This biological activity is evidenced by an assay measuring induction of cyclic-GMP production in a human T-cell line in comparison with thymopoietin. The induction of c-GMP production by a test peptide in this assay indicates the ability of the test peptide to bind to the thymopoietin receptor site on the cell and induce thymopoietin-like biological activity. […] Because of the expense of preparing peptides and the rapid degradation of peptides often observed in living systems, peptides such as those herein which have increased potency are greatly prized.
This assay measures the ability of the test peptide to bind to the cell membrane receptor of the intact CEM cell and selectively stimulate production of cyclic-GMP, as does thymopoietin itself.
The CEM cell line was obtained from the American Type Culture Collection and was cultured in RPMI-1640 medium supplemented with 10% heat-inactivated fetal bovine serum, 10% heat-inactivated horse serum, 2 mM L-glutamine, and 50 µg/ml gentamycin at 37° C. in a humid atmosphere containing 5 percent CO2, to a final density of 3-4×10^6 cells/ml. At this concentration, the cells were in the early stationary phase of the growth curve and were judged greater than 90% viable by trypan blue exclusion. The cells were grown for four days and harvested. After harvesting, the cells were washed three times in PBS and were resuspended in RPMI-1640 medium at a concentration of 3.12×10^7 cells/ml. After the cells had been allowed to equilibrate at 37° C. for 30 min, various concentrations of the test peptides were added in a volume of 25 μl of medium to 1 ml of cells, the initial concentration of test compound added being selected to yield the desired final concentration of test peptide in the medium. The test peptide was mixed instantly with the cell suspension. The incubation was allowed to proceed in a shaking water bath at 37° C. for 4-5 min and was then terminated by addition of ice-cold trichloroacetic acid (10%; 1 ml).
The cells in TCA were then homogenized and sonicated to release cyclic nucleotide. The resulting suspension was centrifuged at 3000 g for 20 min at 4° C. and the resulting precipitate was dissolved in 0.1N NaOH and sonicated for a further 30 minutes, after which the protein content was determined by the method of Cadman, et al., Anal. Biochem., 96, 21-23 (1979). The TCA was removed from the supernatant fraction by extracting four times with 5 ml of water-saturated diethyl ether. After the final extraction, the remaining traces of ether were removed from the supernatant fraction by heating it for 10 min in a 50° C. water bath. After lyophilization of the extracted supernatant fraction, it was reconstituted in 50 mM acetate buffer, ph 6.2, for radioimmunoassay of cyclic nucleotide using the assay kit NEX-133, New England Nuclear, Boston, Mass. 02113.
A conventional competition radioimmunoassay against radio labelled cyclic GMP was conducted to determine the amount of cyclic GMP induced by each concentration of test peptide. Results are shown in FIG. 1 and in the following table, in which representative subject peptides have been assayed in comparison with thymopentin (designated "TP-5") and a "nonsense" peptide H-ASP-ARG-TYR-LYS-VAL-OH.

[2] = test system: isolated thymopoietin cell surface receptor protein from CEM cells; conditions: for Displacement of 125I-TP (in words): comparison peptides
[3] = at equivalent concentrations, with thymopoietin 37-45 nonapeptide, 12 h incubation
[4] = Concentration of Peptide 10^0 μg/ml
[5] = Concentration of Peptide 10^1 μg/ml
[6] = Concentration of Peptide 10^3 μg/ml
[7] = Concentration of Peptide 10^4 μg/ml

CC(=O)N[C@@H](CCCNC(=N)N)C(=O)N1CCC[C@H]1C(=O)N[C@@H](CC(=O)O)C(=O)N[C@H](C(=O)N[C@@H](Cc1ccccc1)C(N)=O)C(C)C [N-α-acetyl-ARG-PRO-ASP-VAL-PHE-NH2, Acetyl-Arginyl-Prolyl-Aspartyl-Valyl-Phenylalanineamide] (Ac-RPDVF-NH2)
Result on the cyclic-GMP assay (in words) [1]: superior results

CC(C)[C@H](NC(=O)[C@H](CC(=O)O)NC(=O)[C@@H]1CCCN1C(=O)[C@@H](N)CCCNC(=N)N)C(=O)N[C@@H](Cc1ccccc1)C(=O)O [H--ARG--PRO--ASP--VAL--PHE--OH, Arginyl-Prolyl-Aspartyl-Valyl-Phenylalanine] (H-RPDVF-OH)
Displacement of 125I-TP relative to that caused by thymopoietin self-displacement [2, 3]: at least 50% | Concentration of c-GMP Produced [1, 4]: 0 picomoles/ml | Concentration of c-GMP Produced [1, 5]: 12 picomoles/ml

CC(C)[C@H](NC(=O)[C@H](CC(=O)O)NC(=O)[C@H](CCCCN)NC(=O)[C@@H](N)CCCNC(=N)N)C(=O)N[C@@H](Cc1c[nH]c2ccccc12)C(N)=O [H-ARG-LYS-ASP-VAL-TRP-NH2, Arginyl-Lysyl-Aspartyl-Valyl-Tryptophan amide] (H-RKDVW-NH2)
Displacement of 125I-TP relative to that caused by thymopoietin self-displacement [2, 3]: at least 50% | Result on the cyclic-GMP assay (in words) [1]: superior results

C[C@H](N)C(=O)NCC(=O)N[C@H]1CSSC[C@@H](C(=O)O)NC(=O)[C@H](CO)NC(=O)[C@H]([C@@H](C)O)NC(=O)[C@H](Cc2ccccc2)NC(=O)[C@H]([C@@H](C)O)NC(=O)[C@H](CCCCN)NC(=O)[C@H](Cc2c[nH]c3ccccc23)NC(=O)[C@H](Cc2ccccc2)NC(=O)[C@H](Cc2ccccc2)NC(=O)[C@H](CC(N)=O)NC(=O)[C@H](CCCCN)NC1=O [somatostatin]
Displacement of 125I-TP (in words) [2]: no detectable displacement

β-endorphin (YGGFMTSEKSQTPLVTLFKNAIIKNAYKKGE; Beta-endorphin; UniProt P01189 237-267, looked up)
Displacement of 125I-TP (in words) [2]: no detectable displacement

ubiquitin
Displacement of 125I-TP (in words) [2]: no detectable displacement

N^α -Acetyl-Arginyl-3,4-dehydro-Prolyl-Aspartyl-Valyl-Tyrosineamide
Result on the cyclic-GMP assay (in words) [1]: superior results

facteur thymique serique [FTS]
Displacement of 125I-TP (in words) [2]: no detectable displacement

growth hormone
Displacement of 125I-TP (in words) [2]: no detectable displacement

adrenocorticotropic hormone (SYSMEHFRWGKPVGKKRRPVKVYPNGAEDESAEAFPLEF; Corticotropin; UniProt P01189 138-176, looked up) [ACTH]
Displacement of 125I-TP (in words) [2]: no detectable displacement

CC(C)[C@H](NC(=O)[C@H](CC(=O)O)NC(=O)[C@H](CCCCN)NC(=O)[C@@H](N)CCCN=C(N)N)C(=O)N[C@@H](Cc1ccc(O)cc1)C(=O)O [TP-5, thymopentin] (H-RKDVY-OH)
Concentration of c-GMP Produced [1, 4]: 0 picomoles/ml | Concentration of c-GMP Produced [1, 5]: 4.5 picomoles/ml | Concentration of c-GMP Produced ([1]; Concentration of Peptide 10^2 μg/ml): 9 picomoles/ml | Concentration of c-GMP Produced [1, 6]: 12 picomoles/ml | Concentration of c-GMP Produced [1, 7]: 14 picomoles/ml

CC(C)[C@H](NC(=O)[C@H](CC(=O)O)NC(=O)[C@H](CCCCN)NC(=O)[C@@H](N)CCCNC(=N)N)C(=O)N[C@@H](Cc1c[nH]cn1)C(=O)O [H--ARG--LYS--ASP--VAL--HIS--OH, Arginyl-Lysyl-Aspartyl-Valyl-Histidine] (H-RKDVH-OH)
Displacement of 125I-TP relative to that caused by thymopoietin self-displacement [2, 3]: at least 50% | Concentration of c-GMP Produced [1, 4]: 0 picomoles/ml | Concentration of c-GMP Produced [1, 5]: 9 picomoles/ml

corticotropin-releasing factor (SEEPPISLDLTFHLLREVLEMARAEQLAQQAHSNRKLMEII; ends and bridges not checked; UniProt P06850 154-194, looked up) [CRF]
Displacement of 125I-TP (in words) [2]: no detectable displacement

CC(=O)N[C@@H](CCCNC(=N)N)C(=O)NC(C)(C)C(=O)N[C@@H](CC(=O)O)C(=O)N[C@H](C(=O)N[C@@H](Cc1ccccc1)C(N)=O)C(C)C [N-α-acetyl-ARG-AIB-ASP-VAL-PHE-NH2, Acetyl-Arginyl-α-Aminoisobutyryl-Aspartyl-Valyl-Phenylalaminamide] (Ac-R[Aib]DVF-NH2)
Result on the cyclic-GMP assay (in words) [1]: superior results

CC(C)[C@H](NC(=O)[C@H](CCCCN)NC(=O)[C@H](Cc1ccc(O)cc1)NC(=O)[C@H](CCCNC(=N)N)NC(=O)[C@@H](N)CC(=O)O)C(=O)O [H--ASP--ARG--TYR--LYS--VAL--OH, H-ASP-ARG-TYR-LYS-VAL-OH, reference compound] (H-DRYKV-OH)
Concentration of c-GMP Produced [1, 6]: 0 picomoles/ml | Concentration of c-GMP Produced [1, 7]: 0 picomoles/ml | Concentration of c-GMP Produced ([1]; Concentration of Peptide 10^5 μg/ml): 0 picomoles/ml

CC(=O)N[C@@H](CCCNC(=N)N)C(=O)N1CCC[C@H]1C(=O)N[C@@H](CC(=O)O)C(=O)N[C@H](C(=O)N[C@@H](Cc1ccccc1)C(=O)O)C(C)C [α-acetyl-ARG--PRO--ASP--VAL--PHE--OH, N^α -Acetyl-Arginyl-Prolyl-Aspartyl-Valyl-Phenylaline] (Ac-RPDVF-OH)
Displacement of 125I-TP relative to that caused by thymopoietin self-displacement [2]: at least 50% | Concentration of c-GMP Produced [1, 4]: 7 picomoles/ml | Concentration of c-GMP Produced [1, 5]: 15 picomoles/ml

CC(C)[C@H](NC(=O)[C@H](CC(=O)O)NC(=O)[C@H](CCCCN)NC(=O)[C@@H](N)CCCNC(=N)N)C(=O)N[C@@H](Cc1ccccc1)C(=O)O [H--ARG--LYS--ASP--VAL--PHE--OH, Arginyl-Lysyl-Aspartyl-Valyl-Phenylalanine] (H-RKDVF-OH)
Displacement of 125I-TP relative to that caused by thymopoietin self-displacement [2, 3]: at least 50% | Concentration of c-GMP Produced [1, 4]: 6 picomoles/ml | Concentration of c-GMP Produced [1, 5]: 9 picomoles/ml

CC(C)[C@H](NC(=O)[C@H](CC(=O)O)NC(=O)[C@H](CCCCN)NC(=O)[C@@H](N)CCCNC(=N)N)C(=O)N[C@@H](Cc1c[nH]c2ccccc12)C(=O)O [H-ARG-LYS-ASP-VAL-TRP-OH, Arginyl-Lysyl-Aspartyl-Valyl-Tryptophan] (H-RKDVW-OH)
Displacement of 125I-TP relative to that caused by thymopoietin self-displacement [2, 3]: at least 50% | Result on the cyclic-GMP assay (in words) [1]: superior results
